Experimental data published in US20250040552A1, “FUNGICIDAL COMPOSITIONS” (SYNGENTA CROP PROTECTION AG, priority 2021, published 2025).

What was measured:
Alternaria solani = assay: Example A1: Alternaria solani / tomato / leaf disc (early blight); type: in vivo; conditions: foliar, tomato leaf disks, compared to untreated control
Description: Example A1: Alternaria solani/Tomato/Leaf Disc (Early Blight) Tomato leaf disks cv. Baby are placed on agar in multiwell plates (24-well format) and sprayed with the formulated test compound diluted in water. The leaf disks are inoculated with a spore suspension of the fungus 2 days after application. The inoculated leaf disks are incubated at 23° C./21° C. […] […].10, and X.11.

[1] = tested on: Glomerella lagenarium (Colletotrichum lagenarium); assay: Example A3: Glomerella lagenarium (Colletotrichum lagenarium) / liquid culture (anthracnose); type: cell-based; conditions: Colletotrichum orbiculare, compared to untreated control
From the text: Example A3: Glomerella lagenarium (Colletotrichum lagenarium)/Liquid Culture (Anthracnose) Conidia of the fungus from cryogenic storage are directly mixed into nutrient broth (PDB potato dextrose broth). […] […].10, and X.11.

[2] = tested on: Blumeria graminis f. sp. tritici (Erysiphe graminis f. sp. tritici); assay: Example A4: Blumeria graminis f. sp. tritici / wheat / leaf disc preventative (powdery mildew on wheat); type: in vivo; conditions: foliar, compared to untreated control
From the text: Example A4: Blumeria graminis f. Sp. Tritici (Erysiphe graminis f. Sp. Tritici)/Wheat/Leaf Disc Preventative (Powdery Mildew on Wheat) Wheat leaf segments cv. Kanzler are placed on agar in a multiwell plate (24-well format) and sprayed with the formulated test compound diluted in water. The leaf disks are inoculated by shaking powdery mildew infected plants above the test plates 1 day after application. […] […].10, and X.11.

[3] = tested on: Monographella nivalis (Microdochium nivale); assay: Example A6: Monographella nivalis (Microdochium nivale) / liquid culture (foot rot cereals); type: cell-based; conditions: compared to untreated control
From the text: Example A6: Monographella nivalis (Microdochium nivale)/Liquid Culture (Foot Rot Cereals) Conidia of the fungus from cryogenic storage are directly mixed into nutrient broth (PDB potato dextrose broth). […] […].10, and X.11.

[4] = tested on: Puccinia recondita f. sp. tritici; assay: Example A10: Puccinia recondita f. sp. tritici / wheat / leaf disc preventative (brown rust); type: in vivo; conditions: foliar, compared to untreated control
Description: Example A10: Puccinia recondita f. Sp. Tritici/Wheat/Leaf Disc Preventative (Brown Rust) Wheat leaf segments cv. Kanzler are placed on agar in multiwell plates (24-well format) and sprayed with the formulated test compound diluted in water. The leaf disks are inoculated with a spore suspension of the fungus 1 day after application. The inoculated leaf segments are incubated at 19° C. and 75% rh under a light regime of 12 h light/12 h darkness in a climate cabinet and the activity of a compound is assessed as percent disease control compared to untreated when an appropriate level of disease damage appears in untreated check leaf segments (7-9 days after application). […] […].10, and X.11.

[5] = tested on: Magnaporthe grisea (Pyricularia oryzae); assay: whole plant or invertebrate; type: in vivo; conditions: foliar, read-out: control of Magnaporthe grisea
Pyrenophora teres = assay: Example A12: Pyrenophora teres / barley / leaf disc preventative (net blotch); type: in vivo; conditions: foliar, compared to untreated control
Description: Example A12: Pyrenophora teres/Barley/Leaf Disc Preventative (Net Blotch) Barley leaf segments cv. Hasso are placed on agar in a multiwell plate (24-well format) and sprayed with the formulated test compound diluted in water. The leaf […] inoculated with a spore suspension of the fungus 2 days after application. The inoculated leaf segments are incubated at 20° C. and 65% rh under a light regime of 12 h light/12 h darkness in a climate cabinet and the activity of a compound is assessed as disease control compared to untreated when an appropriate level of disease damage appears in untreated check leaf segments (5-7 days after application). […] […].10, and X.11.

Sclerotinia sclerotiorum = assay: Example A13: Sclerotinia sclerotiorum / liquid culture (cottony rot); type: cell-based; conditions: 20 ppm, compared to untreated control

Structure (SMILES): Cc1sc(N(C(=O)C2CCOC2)c2cc(F)nc(F)c2)nc1C(=O)N(C(=O)C1CCOC1)C1CCC1(C)C (centres unmarked) [Compound X.01, 2-[(2,6-difluoro-4-pyridyl)-(tetrahydrofuran-3-carbonyl)amino]-N-(2,2-dimethylcyclobutyl)-5-methyl-N-(tetrahydrofuran-3-carbonyl)thiazole-4-carboxamide]
- pest or weed control at 200 ppm (Alternaria solani): ≥ 80%
- inhibition of growth at 20 ppm [1]: ≥ 80%
- pest or weed control at 200 ppm [2]: ≥ 80%
- inhibition of growth at 20 ppm [3]: ≥ 80%
- pest or weed control at 200 ppm [4]: ≥ 80%
- pest or weed control at 200 ppm [5]: ≥ 80%
- pest or weed control at 200 ppm (Pyrenophora teres): ≥ 80%

Structure (SMILES): Cc1sc(N(C(=O)C2CCCO2)c2cc(F)nc(F)c2)nc1C(=O)NC1CCC1(C)C (centres unmarked) [X.02, 2-[(2,6-difluoro-4-pyridyl)-(tetrahydrofuran-2-carbonyl)amino]-N-(2,2-dimethylcyclobutyl)-5-methyl-thiazole-4-carboxamide]
- pest or weed control at 200 ppm (Alternaria solani): ≥ 80%
- inhibition of growth at 20 ppm [1]: ≥ 80%
- pest or weed control at 200 ppm [2]: ≥ 80%
- inhibition of growth at 20 ppm [3]: ≥ 80%
- pest or weed control at 200 ppm [4]: ≥ 80%
- pest or weed control at 200 ppm [5]: ≥ 80%
- pest or weed control at 200 ppm (Pyrenophora teres): ≥ 80%

Structure (SMILES): Cc1sc(N(C(=O)C2CCOC2)c2cc(F)nc(F)c2)nc1C(=O)NC1CCC1(C)C (centres unmarked) [X.03, 2-[(2,6-difluoro-4-pyridyl)-(tetrahydrofuran-3-carbonyl)amino]-N-(2,2-dimethylcyclobutyl)-5-methyl-thiazole-4-carboxamide]
- pest or weed control at 200 ppm (Alternaria solani): ≥ 80%
- inhibition of growth at 20 ppm [1]: ≥ 80%
- pest or weed control at 200 ppm [2]: ≥ 80%
- inhibition of growth at 20 ppm [3]: ≥ 80%
- pest or weed control at 200 ppm [4]: ≥ 80%
- pest or weed control at 200 ppm [5]: ≥ 80%
- pest or weed control at 200 ppm (Pyrenophora teres): ≥ 80%

Structure (SMILES): Cc1sc(N(C(=O)C2COC2)c2cc(F)nc(F)c2)nc1C(=O)NC1CCC1(C)C (centres unmarked) [X.04, 2-[(2,6-difluoro-4-pyridyl)-(oxetane-3-carbonyl)amino]-N-(2,2-dimethylcyclobutyl)-5-methyl-thiazole-4-carboxamide]
- pest or weed control at 200 ppm (Alternaria solani): ≥ 80%
- inhibition of growth at 20 ppm [1]: ≥ 80%
- pest or weed control at 200 ppm [2]: ≥ 80%
- inhibition of growth at 20 ppm [3]: ≥ 80%
- pest or weed control at 200 ppm [4]: ≥ 80%
- pest or weed control at 200 ppm [5]: ≥ 80%
- pest or weed control at 200 ppm (Pyrenophora teres): ≥ 80%

Structure (SMILES): Cc1sc(N(C(=O)C(C)OC(C)(C)C)c2cc(F)nc(F)c2)nc1C(=O)NC1CCC1(C)C (centres unmarked) [X.05, 2-[2-tert-butoxypropanoyl-(2,6-difluoro-4-pyridyl)amino]-N-(2,2-dimethylcyclobutyl)-5-methyl-thiazole-4-carboxamide]
- pest or weed control at 200 ppm (Alternaria solani): ≥ 80%
- pest or weed control at 200 ppm [2]: ≥ 80%
- inhibition of growth at 20 ppm [3]: ≥ 80%
- pest or weed control at 200 ppm [4]: ≥ 80%
- pest or weed control at 200 ppm [5]: ≥ 80%
- pest or weed control at 200 ppm (Pyrenophora teres): ≥ 80%

Structure (SMILES): Cc1sc(N(C(=O)C(C)OC(C)C)c2cc(F)nc(F)c2)nc1C(=O)NC1CCC1(C)C (centres unmarked) [X.06, 2-[(2,6-difluoro-4-pyridyl)-(2-isopropoxypropanoyl)amino]-N-(2,2-dimethylcyclobutyl)-5-methyl-thiazole-4-carboxamide]
- pest or weed control at 200 ppm (Alternaria solani): ≥ 80%
- inhibition of growth at 20 ppm [1]: ≥ 80%
- pest or weed control at 200 ppm [2]: ≥ 80%
- inhibition of growth at 20 ppm [3]: ≥ 80%
- pest or weed control at 200 ppm [4]: ≥ 80%
- pest or weed control at 200 ppm [5]: ≥ 80%
- pest or weed control at 200 ppm (Pyrenophora teres): ≥ 80%

Structure (SMILES): Cc1sc(N(C(=O)COC(C)(C)C)c2cc(F)nc(F)c2)nc1C(=O)NC1CCC1(C)C (centres unmarked) [X.07, 2-[(2-tert-butoxyacetyl)-(2,6-difluoro-4-pyridyl)amino]-N-(2,2-dimethylcyclobutyl)-5-methyl-thiazole-4-carboxamide]
- pest or weed control at 200 ppm [2]: ≥ 80%
- pest or weed control at 200 ppm [5]: ≥ 80%

Structure (SMILES): Cc1sc(N(C(=O)COC(C)C)c2cc(F)nc(F)c2)nc1C(=O)NC1CCC1(C)C (centres unmarked) [X.08, 2-[(2,6-difluoro-4-pyridyl)-(2-isopropoxyacetyl)amino]-N-(2,2-dimethylcyclobutyl)-5-methyl-thiazole-4-carboxamide]
- pest or weed control at 200 ppm [2]: ≥ 80%
- pest or weed control at 200 ppm [5]: ≥ 80%

Structure (SMILES): COC(C)C(=O)N(c1cc(F)nc(F)c1)c1nc(C(=O)NC2CCC2(C)C)c(C)s1 (centres unmarked) [X.09, 2-[(2,6-difluoro-4-pyridyl)-(2-methoxypropanoyl)amino]-N-(2,2-dimethylcyclobutyl)-5-methyl-thiazole-4-carboxamide]
- pest or weed control at 200 ppm (Alternaria solani): ≥ 80%
- inhibition of growth at 20 ppm [1]: ≥ 80%
- pest or weed control at 200 ppm [2]: ≥ 80%
- inhibition of growth at 20 ppm [3]: ≥ 80%
- pest or weed control at 200 ppm [4]: ≥ 80%
- pest or weed control at 200 ppm [5]: ≥ 80%
- pest or weed control at 200 ppm (Pyrenophora teres): ≥ 80%

Structure (SMILES): Cc1sc(N(C(=O)C(C)S(C)(=O)=O)c2cc(F)nc(F)c2)nc1C(=O)NC1CCC1(C)C (centres unmarked) [X.10, 2-[(2,6-difluoro-4-pyridyl)-(2-methylsulfonylpropanoyl)amino]-N-(2,2-dimethylcyclobutyl)-5-methyl-thiazole-4-carboxamide]
- pest or weed control at 200 ppm (Alternaria solani): ≥ 80%
- inhibition of growth at 20 ppm [1]: ≥ 80%
- pest or weed control at 200 ppm [2]: ≥ 80%
- inhibition of growth at 20 ppm [3]: ≥ 80%
- pest or weed control at 200 ppm [5]: ≥ 80%
- pest or weed control at 200 ppm (Pyrenophora teres): ≥ 80%
- control of Sclerotinia sclerotiorum (Sclerotinia sclerotiorum): at least 80%

Structure (SMILES): Cc1sc(N(C(=O)C2CCOCC2)c2cc(F)nc(F)c2)nc1C(=O)NC1CCC1(C)C (centres unmarked) [X.11, 2-[(2,6-difluoro-4-pyridyl)-(tetrahydropyran-4-carbonyl)amino]-N-(2,2-dimethylcyclobutyl)-5-methyl-thiazole-4-carboxamide]
- pest or weed control at 200 ppm (Alternaria solani): ≥ 80%
- inhibition of growth at 20 ppm [1]: ≥ 80%
- pest or weed control at 200 ppm [2]: ≥ 80%
- inhibition of growth at 20 ppm [3]: ≥ 80%
- pest or weed control at 200 ppm [4]: ≥ 80%
- pest or weed control at 200 ppm (Pyrenophora teres): ≥ 80%
